Test results published in patent US20260317309A1, “N-HETEROCYLIC GPCR RECEPTOR AGONISTS, PHARMACEUTICAL COMPOSITIONS COMPRISING THE SAME, AND METHODS FOR THEIR USE” (Carmot Therapeutics, Inc., priority 2022, published 2026).

target: T1, human GLP-1 receptor (Homo sapiens, UniProt P43220); assay: GLP-1R cAMP assay (cAMP accumulation in CHO cells stably overexpressing the human GLP-1 receptor, HitHunter kit); type: cell-based; settings: CHO cells stably overexpressing human GLP-1R, 30 min, 20-point dose response in triplicate
T1 construct: expressed in transfected cells
T1 sequence (P43220 24-463): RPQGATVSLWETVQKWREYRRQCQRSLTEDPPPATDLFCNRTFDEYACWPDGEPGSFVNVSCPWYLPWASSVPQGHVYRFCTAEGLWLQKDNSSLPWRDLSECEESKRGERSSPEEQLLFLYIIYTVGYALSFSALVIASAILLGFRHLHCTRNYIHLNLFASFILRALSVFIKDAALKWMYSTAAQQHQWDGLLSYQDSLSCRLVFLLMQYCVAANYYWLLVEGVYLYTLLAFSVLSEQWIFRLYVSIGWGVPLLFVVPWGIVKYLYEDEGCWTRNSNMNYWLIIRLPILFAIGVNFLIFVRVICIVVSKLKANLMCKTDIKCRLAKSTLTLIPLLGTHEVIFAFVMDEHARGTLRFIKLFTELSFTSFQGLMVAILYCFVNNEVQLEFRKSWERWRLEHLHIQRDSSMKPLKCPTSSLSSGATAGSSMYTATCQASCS
Description: CAMP accumulation was measured in Chinese hamster ovary (CHO) cells (10,000 cells/well) stably overexpressing the human GLP-1 receptor using the HitHunter CAMP Assay for Small Molecules Kit (Eurofins). Briefly, cells were grown in Ham's F12 Nutrient Mix with 10% FBS, and lifted with Cell Dissociation Buffer, Enzyme free, PBS based (ThermoFisher). Cells were pelleted, and resuspended in Hank's buffered saline solution with 10 mM HEPES, and 625 μM 3-isobutyl-1-methylxanthine. The anti-cAMP antibody reagent was then added to cells at a 1:2 ratio and 5 μL of mixture was seeded in 384-well small volume white assay plates, at 10,000 cells/well. Cells were then treated with 50 nL compound using an ECHO 550 acoustic dispenser (Labcyte) in a 20-point dose response format in triplicate for 30 min. Cells were then lysed, and detection reagents added according to the manufacturer's protocol. After overnight incubation, luminescence was measured using a Perkin Elmer Envision plate reader. Dose response curves were analyzed using GraphPad Prism 9.0.
In the Table, EC50 values are designated as follows: • A: 0 nM<EC50<0.1 nM; • B: 0.1 nM≤EC50<1.0 nM; • C: 1.0 nM≤EC50<10.0 nM; • D: 10.0 nM≤EC50<100 nM; • E: 100 nM≤EC50<500 nM; and • F: ≥500 nM

Row | SMILES | EC50 [nM]
1 | C[C@H]1C[C@@H](Oc2ccnc(COc3ccc(F)cc3F)n2)CCN1Cc1nc2ccc(C(=O)NS(=O)(=O)C3CC3)cc2n1C[C@@H]1CCO1 [Compound 564, N-(Cyclopropanesulfonyl)-2-{[(2S,4S)-4-({2-[(2,4-difluorophenoxy)methyl]pyrimidin-4-yl}oxy)-2-methylpiperidin-1-yl]methyl}-1-{[(2S)-oxetan-2-yl]methyl}-1H-1,3-benzodiazole-6-carboxamide] | 0.1 to 1
2 | C[C@H]1C[C@@H](Oc2ccnc(COc3ccc(C#N)cn3)n2)CCN1Cc1nc2ccc(C(=O)O)cc2n1C[C@@H]1CCO1 [Compound 567, 2-{[(2S,4S)-4-[(2-{[(5-Cyanopyridin-2-yl)oxy]methyl}pyrimidin-4-yl)oxy]-2-methylpiperidin-1-yl]methyl}-1-{[(2S)-oxetan-2-yl]methyl}-1H-1,3-benzodiazole-6-carboxylic acid] | 0.1 to 1
3 | C[C@H]1C[C@@H](Oc2ccnc(COc3ccc(F)cc3F)n2)CCN1Cc1nc2ccc(C(=O)Nc3cccnc3)cc2n1C[C@@H]1CCO1 [Compound 638, 2-(((2S,4S)-4-((2-((2,4-Difluorophenoxy)methyl)pyrimidin-4-yl)oxy)-2-methylpiperidin-1-yl)methyl)-1-(((S)-oxetan-2-yl)methyl)-N-(pyridin-3-yl)-1H-benzo[d]imidazole-6-carboxamide] | 10 to 100
4 | C[C@H]1C[C@@H](Oc2ccnc(COc3ccc(F)cc3F)n2)CCN1Cc1nc2ccc(C(=O)O)cc2n1CC12CC(CO1)C2 [Compound 570, 2-{[(2S,4S)-4-({2-[(2,4-Difluorophenoxy)methyl]pyrimidin-4-yl}oxy)-2-methylpiperidin-1-yl]methyl}-1-({2-oxabicyclo[2.1.1]hexan-1-yl}methyl)-1H-1,3-benzodiazole-6-carboxylic acid] | 0.1 to 1
5 | N#Cc1ccc(OCc2nccc(OC3CCC4(CC3)CC4c3nc4ccc(C(=O)O)cc4n3C[C@@H]3CCO3)n2)c(F)c1 (stereo partly drawn) [Compound 571, 2-(6-((2-((4-Cyano-2-fluorophenoxy)methyl)pyrimidin-4-yl)oxy)spiro[2.5]octan-1-yl)-1-(((S)-oxetan-2-yl)methyl)-1H-benzo[d]imidazole-6-carboxylic acid] | 10 to 100
6 | C[C@H]1C[C@@H](Oc2ccnc(COc3ncc(F)cc3F)n2)CCN1Cc1nc2c(F)cc(C(=O)O)cc2n1C[C@@H]1CCO1 [Compound 606, 2-(((2S,4S)-4-((2-(((3,5-difluoropyridin-2-yl)oxy)methyl)pyrimidin-4-yl)oxy)-2-methylpiperidin-1-yl)methyl)-4-fluoro-1-(((S)-oxetan-2-yl)methyl)-1H-benzo[d]imidazole-6-carboxylic acid] | < 0.1
7 | C[C@H]1C[C@@H](Oc2ccnc(COc3ncc(C#N)cc3F)n2)CCN1Cc1nc2ccc(C(=O)O)cc2n1CCOCC(F)(F)F [Compound 635, 2-(((2S,4S)-4-((2-(((5-Cyano-3-fluoropyridin-2-yl)oxy)methyl)pyrimidin-4-yl)oxy)-2-methylpiperidin-1-yl)methyl)-1-(2-(2,2,2-trifluoroethoxy)ethyl)-1H-benzo[d]imidazole-6-carboxylic acid] | 0.1 to 1
8 | C[C@H]1C[C@@H](Oc2ccnc(COc3ccc(F)cc3C#N)n2)CCN1Cc1nc2cnc(C(=O)O)cc2n1C[C@@H]1CCO1 [Compound 574, 2-{[(2S,4S)-4-({2-[(2-cyano-4-fluorophenoxy)methyl]pyrimidin-4-yl}oxy)-2-methylpiperidin-1-yl]methyl}-1-{[(2S)-oxetan-2-yl]methyl}-1H-imidazo[4,5-c]pyridine-6-carboxylic acid] | 1 to 10
9 | C[C@H]1C[C@@H](Oc2ccnc(COc3ncc(F)cc3C#N)n2)CCN1Cc1nc2c(F)cc(C(=O)O)cc2n1C[C@@H]1CCO1 [Compound 629, 2-(((2S,4S)-4-((2-(((3-cyano-5-fluoropyridin-2-yl)oxy)methyl)pyrimidin-4-yl)oxy)-2-methylpiperidin-1-yl)methyl)-4-fluoro-1-(((S)-oxetan-2-yl)methyl)-1H-benzo[d]imidazole-6-carboxylic acid] | < 0.1
10 | C[C@H]1C[C@@H](Oc2ccnc(COc3ccc(F)cc3C#N)n2)CCN1Cc1nc2ccc(C(=O)O)c(F)c2n1C[C@@H]1CCO1 [Compound 573, 2-{[(2S,4S)-4-({2-[(2-cyano-4-fluorophenoxy)methyl]pyrimidin-4-yl}oxy)-2-methylpiperidin-1-yl]methyl}-7-fluoro-1-{[(2S)-oxetan-2-yl]methyl}-1H-1,3-benzodiazole-6-carboxylic acid] | < 0.1
11 | C[C@H]1C[C@@H](Oc2ccnc(COc3ccc(F)cc3F)n2)CCN1Cc1nc2ccc(CCC(=O)O)cc2n1C[C@@H]1CCO1 [Compound 623, 3-(2-(((2S,4S)-4-((2-((2,4-difluorophenoxy)methyl)pyrimidin-4-yl)oxy)-2-methylpiperidin-1-yl)methyl)-1-(((S)-oxetan-2-yl)methyl)-1H-benzo[d]imidazol-6-yl) propanoic acid] | 1 to 10

Continued, values first:

Row | EC50 [nM] | SMILES
12 | 0.1 to 1 | O=C(O)c1cc(F)c2nc(CN3CCC(Oc4ccnc(COc5ncc(F)cc5F)n4)CC3)n(C[C@@H]3CCO3)c2c1 [Compound 628, (S)-2-((4-((2-(((3,5-difluoropyridin-2-yl)oxy)methyl)pyrimidin-4-yl)oxy)piperidin-1-yl)methyl)-4-fluoro-1-(oxetan-2-ylmethyl)-1H-benzo[d]imidazole-6-carboxylic acid]
13 | 0.1 to 1 | C[C@H]1C[C@@H](Oc2ccnc(COc3ccc(C#N)cc3F)n2)CCN1Cc1nc2ccc(C(=O)O)cc2n1C[C@@H]1CCOC1 [Compound 578, 2-{[(2S,4S)-4-({2-[(4-cyano-2-fluorophenoxy)methyl]pyrimidin-4-yl}oxy)-2-methylpiperidin-1-yl]methyl}-1-{[(3S)-oxolan-3-yl]methyl}-1H-1,3-benzodiazole-6-carboxylic acid]
14 | 0.1 to 1 | C[C@@H](Cn1c(CN2CC[C@H](Oc3ccnc(COc4ccc(F)cc4F)n3)C[C@@H]2C)nc2ccc(C(=O)O)cc21)OC(F)F [Compound 591, 1-[(2S)-2-(Difluoromethoxy)propyl]-2-{[(2S,4S)-4-({2-[(2,4-difluorophenoxy)methyl]pyrimidin-4-yl}oxy)-2-methylpiperidin-1-yl]methyl}-1H-1,3-benzodiazole-6-carboxylic acid]
15 | 0.1 to 1 | C[C@H]1C[C@@H](Oc2ccnc(COc3ncc(F)cc3C#N)n2)CCN1Cc1nc2ccc(C(=O)O)cc2n1C[C@@H]1CCO1 [Compound 630, 2-(((2S,4S)-4-((2-(((3-Cyano-5-fluoropyridin-2-yl)oxy)methyl)pyrimidin-4-yl)oxy)-2-methylpiperidin-1-yl)methyl)-1-(((S)-oxetan-2-yl)methyl)-1H-benzo[d]imidazole-6-carboxylic acid]
16 | 0.1 to 1 | C[C@H]1C[C@@H](Oc2ccnc(COc3ccc(F)cc3C#N)n2)CCN1Cc1nc2ccc(C(=O)NO)cc2n1C[C@@H]1CCO1 [Compound 560, 2-{[(2S,4S)-4-({2-[(2-Cyano-4-fluorophenoxy)methyl]pyrimidin-4-yl}oxy)-2-methylpiperidin-1-yl]methyl}-N-hydroxy-1-{[(2S)-oxetan-2-yl]methyl}-1H-1,3-benzodiazole-6-carboxamide]
17 | 0.1 to 1 | O=C(O)c1cc(F)c2nc(CN3CCC(Oc4ccnc(COc5ncc(Cl)cc5F)c4)CC3)n(C[C@@H]3CCO3)c2c1 [Compound 613, (S)-2-((4-((2-(((5-Chloro-3-fluoropyridin-2-yl)oxy)methyl)pyridin-4-yl)oxy)piperidin-1-yl)methyl)-4-fluoro-1-(oxetan-2-ylmethyl)-1H-benzo[d]imidazole-6-carboxylic acid]
